Values of other authors in article PMC6422671 (British Journal of Clinical Pharmacology, 2019).
Entries after “also recorded” stand apart in the source; their conditions may differ.

Assays:
[1] = design: method as in E Michaëlsson et al., manuscript in preparation; conditions: ref E Michaëlsson et al., manuscript in preparation; cited from earlier work
[2] = tested on: myeloperoxidase; design: method as in E Michaëlsson et al., manuscript in preparation; conditions: in vitro, unpublished; ref E Michaëlsson et al., manuscript in preparation; cited from earlier work
[3] = tested on: xanthine oxidase; design: method as in E Michaëlsson et al., manuscript in preparation; conditions: in vitro; ref E Michaëlsson et al., manuscript in preparation; cited from earlier work
[4] = preclinical study in dogs; cited from earlier work

## C[C@@H](N)c1cc(Cl)ccc1Cn1c(=S)[nH]c(=O)c2[nH]ccc21 [AZD4831]
[1]
  human plasma protein binding: 65%
[2]
  inhibition of oxidation of xanthine and uric acid by myeloperoxidase: inhibits
[3]
  inhibition of xanthine oxidase: does not inhibit; also recorded: is not a substrate or an inhibitor
[4]
  dose at which no adverse effects were observed: 20 mg kg^−1 per day
